Assay results reported in ChEMBL document CHEMBL6087456 (J Med Chem, 2025).
In brackets after ≈: the same amount, converted by molar mass. Values belong to the molecule of their own block, whether it stands above or below them.

Legend:
[1] = molecular target: T1, Dihydroorotate dehydrogenase (quinone), mitochondrial (Plasmodium falciparum (isolate 3D7), UniProt Q08210); test: Inhibition of N-terminal His6-tagged recombinant Plasmodium falciparum DHODH (158 to 569 residues) N-terminally truncated soluble domain extracted from Escherichia coli phage resistant BL21-DE3 using CoQD/DHA/DCIP as substrates
T1 sequence (Q08210 whole entry): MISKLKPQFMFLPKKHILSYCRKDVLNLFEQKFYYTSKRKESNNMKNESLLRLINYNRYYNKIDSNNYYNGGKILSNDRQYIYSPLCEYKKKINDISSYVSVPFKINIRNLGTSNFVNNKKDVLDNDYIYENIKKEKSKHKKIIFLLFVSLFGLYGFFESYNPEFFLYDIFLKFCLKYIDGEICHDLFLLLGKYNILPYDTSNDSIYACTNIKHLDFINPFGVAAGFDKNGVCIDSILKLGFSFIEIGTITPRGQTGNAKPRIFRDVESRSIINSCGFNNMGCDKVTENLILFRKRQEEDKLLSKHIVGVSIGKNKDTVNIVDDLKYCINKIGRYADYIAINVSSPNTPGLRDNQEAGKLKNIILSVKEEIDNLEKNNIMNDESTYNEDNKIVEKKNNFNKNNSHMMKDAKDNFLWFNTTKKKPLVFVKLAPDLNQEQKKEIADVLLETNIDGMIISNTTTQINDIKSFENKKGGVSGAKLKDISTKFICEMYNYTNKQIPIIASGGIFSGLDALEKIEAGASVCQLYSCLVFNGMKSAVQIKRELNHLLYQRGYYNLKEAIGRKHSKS

[2] = molecular target: Dihydroorotate dehydrogenase (quinone), mitochondrial (Homo sapiens, UniProt Q02127); test: Inhibition of C-terminal His6-tagged recombinant human DHODH (29 to 395 residues) N-terminally truncated soluble domain extracted from Escherichia coli phage resistant BL21-DE3 using CoQD/DHA/DCIP as substrates
Plasmodium falciparum = test: Antiparasitic activity against asexual blood stage Plasmodium falciparum 3D7 incubated for 72 hrs by SYBR Green assay; format: functional, organism-based; conditions: 3D7, 72 h
[3] = Kinetic solubility of compound at pH 6.5 measured after 30 mins by nephelometry; format: physicochemical; conditions: buffer; for solubility kinetic at 0.5 h: pH 6.5, read-out: Kinetic_solubility; for Kinetic_solubility: pH 6.5, 0.5 h
[4] = Metabolic stability in human liver microsomes assessed as intrinsic clearance at 0.5 uM incubated for 60 mins in presence of NADPH by tandem quadrupole-Time of Flight MS; format: ADME, Microsome; conditions: 1 h

Sequence of Dihydroorotate dehydrogenase (quinone), mitochondrial (Homo sapiens, UniProt Q02127) (Q02127 whole entry, the tested form may be a part): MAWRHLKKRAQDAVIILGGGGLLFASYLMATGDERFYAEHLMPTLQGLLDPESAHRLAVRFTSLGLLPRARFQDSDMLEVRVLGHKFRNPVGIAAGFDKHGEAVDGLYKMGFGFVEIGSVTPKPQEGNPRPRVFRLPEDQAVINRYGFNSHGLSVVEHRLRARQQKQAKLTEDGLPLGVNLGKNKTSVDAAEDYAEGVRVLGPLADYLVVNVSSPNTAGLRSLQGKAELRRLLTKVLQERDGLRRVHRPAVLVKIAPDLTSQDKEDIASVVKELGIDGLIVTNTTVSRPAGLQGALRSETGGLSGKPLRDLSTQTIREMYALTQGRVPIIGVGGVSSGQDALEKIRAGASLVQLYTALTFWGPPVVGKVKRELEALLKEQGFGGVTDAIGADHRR

Compound: CCn1cc(C2CC2)c2c(CN3CCC4(CCC4)CC3)n(C)nc2c1=O
IC50 [1]: 0.008 µM
IC50 [2]: 22 µM
EC50 (Plasmodium falciparum): 0.015 µM
solubility kinetic at 0.5 h [3]: 80 µM (≈ 28.4 µg/mL)
intrinsic clearance (CLint) [4]: 130 µL/min/mg

Compound: CC[C@](N)(c1cnc(C(F)(F)F)c(Cl)c1)c1c2ccn(C3CC3)c(=O)c2nn1C
IC50 [1]: 17 µM
EC50 (Plasmodium falciparum): 2.3 µM

Compound: CC[C@@](N)(c1ccc(C(F)(F)F)c(Cl)c1)c1c2ncn(C3CC3)c(=O)c2nn1C
IC50 [1]: 0.009 µM
EC50 (Plasmodium falciparum): 0.001 µM
Kinetic_solubility [3]: > 100 µM
intrinsic clearance (CLint) [4]: < 3 µL/min/mg

Compound: Cn1nc2c(=O)n(C3CC3)ccc2c1[C@](C)(O)c1cnc(C(F)(F)F)c(Cl)c1
IC50 [2]: > 30 µM
EC50 (Plasmodium falciparum): 0.001 µM
solubility kinetic at 0.5 h [3]: 80 µM (≈ 33 µg/mL)
intrinsic clearance (CLint) [4]: 6.8 µL/min/mg

Compound: Cn1nc2c(=O)n(C3CC3)ncc2c1[C@](O)(c1ccc(C(F)(F)F)c(Cl)c1)C(F)(F)F
IC50 [1]: 0.009 µM
IC50 [2]: 22 µM
solubility kinetic at 0.5 h [3]: 5 µM (≈ 2.33 µg/mL)
intrinsic clearance (CLint) [4]: < 3 µL/min/mg

Compound: CCn1ccc2c([C@@](O)(CC)c3cnc(C(F)(F)F)c(Cl)c3)n(C)nc2c1=O
IC50 [1]: 0.027 µM
solubility kinetic at 0.5 h [3]: 40 µM (≈ 16.6 µg/mL)
intrinsic clearance (CLint) [4]: 9.3 µL/min/mg

Compound: Cn1nc2c(=O)n(CCC3CC3)ccc2c1Cc1ccc(C(F)(F)F)nc1
IC50 [1]: > 100 µM
EC50 (Plasmodium falciparum): 14 µM

Compound: Cn1nc2c(=O)n(C3CC3)ccc2c1[C@@](O)(c1cnc(C(F)(F)F)c(Cl)c1)C(F)(F)F
EC50 (Plasmodium falciparum): 0.41 µM

Compound: CC[C@](O)(c1cnc(C(F)(F)F)c(Cl)c1)c1c2cnn(C3CC3)c(=O)c2nn1C
EC50 (Plasmodium falciparum): 1.7 µM

Compound: CC(C)n1ccc2c(Cc3ccc(C(F)(F)F)nc3)n(C)nc2c1=O
IC50 [1]: 14 µM
IC50 [2]: > 100 µM
EC50 (Plasmodium falciparum): 6.6 µM

Now from value to molecule:

IC50 [2]: > 100 µM
EC50 (Plasmodium falciparum): 0.008 µM
solubility kinetic at 0.5 h [3]: 160 µM (≈ 62.8 µg/mL)
intrinsic clearance (CLint) [4]: 15 µL/min/mg
Compound: CCn1cc(C2CC2)c2c([C@H](O)c3ccc(C(F)(F)F)nc3)n(C)nc2c1=O

IC50 [2]: > 30 µM
EC50 (Plasmodium falciparum): 0.015 µM
solubility kinetic at 0.5 h [3]: 20 µM (≈ 8.8 µg/mL)
intrinsic clearance (CLint) [4]: 5.4 µL/min/mg
Compound: Cn1nc2c(=O)n(C3CC3)ncc2c1[C@](O)(c1cnc(C(F)(F)F)c(Cl)c1)C1CC1

IC50 [2]: > 100 µM
EC50 (Plasmodium falciparum): 0.001 µM
solubility kinetic at 0.5 h [3]: 80 µM (≈ 32.1 µg/mL)
intrinsic clearance (CLint) [4]: 25 µL/min/mg
Compound: CCn1ccc2c([C@](C)(O)c3cnc(C(F)(F)F)c(Cl)c3)n(C)nc2c1=O

EC50 (Plasmodium falciparum): 0.001 µM
solubility kinetic at 0.5 h [3]: 50 µM (≈ 19.7 µg/mL)
intrinsic clearance (CLint) [4]: 3.2 µL/min/mg
Compound: CC[C@@](O)(c1cc(F)c(Cl)c(F)c1)c1c2ccn(C3CC3)c(=O)c2nn1C

IC50 [2]: > 100 µM
EC50 (Plasmodium falciparum): 0.3 µM
solubility kinetic at 0.5 h [3]: 50 µM (≈ 17.5 µg/mL)
intrinsic clearance (CLint) [4]: 20 µL/min/mg
Compound: CCn1cc(C2CC2)c2c(CN3CCC(F)(F)CC3)n(C)nc2c1=O

IC50 [2]: > 30 µM
EC50 (Plasmodium falciparum): 0.002 µM
solubility kinetic at 0.5 h [3]: 50 µM (≈ 21.6 µg/mL)
intrinsic clearance (CLint) [4]: < 3 µL/min/mg
Compound: Cn1nc2c(=O)n(C3CC3)ccc2c1[C@](O)(c1ccc(C(F)(F)F)nc1)C(F)(F)F

EC50 (Plasmodium falciparum): 2.1 µM
Compound: CCn1cc(C2CC2)c2c([C@@H](O)c3ccc(C(F)(F)F)nc3)n(C)nc2c1=O

IC50 [2]: 57 µM
EC50 (Plasmodium falciparum): 0.035 µM
solubility kinetic at 0.5 h [3]: 40 µM (≈ 15.1 µg/mL)
intrinsic clearance (CLint) [4]: 74 µL/min/mg
Compound: CCn1cc(C2CC2)c2c(CN3CCC(F)(F)CC3(C)C)n(C)nc2c1=O

EC50 (Plasmodium falciparum): 0.093 µM
solubility kinetic at 0.5 h [3]: 80 µM (≈ 28 µg/mL)
intrinsic clearance (CLint) [4]: 26 µL/min/mg
Compound: CCn1cc(C2CC2)c2c(CN3CCCC(F)(F)C3)n(C)nc2c1=O

EC50 (Plasmodium falciparum): 0.003 µM
solubility kinetic at 0.5 h [3]: 20 µM (≈ 8.52 µg/mL)
intrinsic clearance (CLint) [4]: < 3 µL/min/mg
Compound: CC[C@@](N)(c1ccc(C(F)(F)F)c(Cl)c1)c1c2cnn(C3CC3)c(=O)c2nn1C

EC50 (Plasmodium falciparum): 0.001 µM
Kinetic_solubility [3]: > 100 µM
intrinsic clearance (CLint) [4]: 3.7 µL/min/mg
Compound: CC[C@@](O)(c1cnc(C(F)(F)F)c(Cl)c1)c1c2ncn(C3CC3)c(=O)c2nn1C

IC50 [2]: > 100 µM
EC50 (Plasmodium falciparum): 0.011 µM
solubility kinetic at 0.5 h [3]: 160 µM (≈ 64.1 µg/mL)
intrinsic clearance (CLint) [4]: 3.2 µL/min/mg
Compound: CCn1cc(C)c2c([C@H](O)c3cnc(C(F)(F)F)c(Cl)c3)n(C)nc2c1=O

IC50 [2]: > 30 µM
EC50 (Plasmodium falciparum): 0.004 µM
solubility kinetic at 0.5 h [3]: 80 µM (≈ 35.2 µg/mL)
intrinsic clearance (CLint) [4]: < 3 µL/min/mg
Compound: Cn1nc2c(=O)n(C3CC3)cnc2c1[C@](O)(c1cnc(C(F)(F)F)c(Cl)c1)C1CC1

IC50 [2]: 4.3 µM
solubility kinetic at 0.5 h [3]: 5 µM (≈ 2.33 µg/mL)
intrinsic clearance (CLint) [4]: < 3 µL/min/mg
Compound: Cn1nc2c(=O)n(C3CC3)ccc2c1[C@](O)(c1ccc(C(F)(F)F)c(Cl)c1)C(F)(F)F
